# According to ChEMBL document CHEMBL4004881, “Perfluorinated hydroxamic acids are potent and selective inhibitors of HDAC-like enzymes from Pseudomonas aeruginosa” (Bioorg Med Chem Lett, 2017):
# Columns and labels:
# [1] = Inhibition of Pseudomonas aeruginosa PA3774 using Boc-Lys(trifluoroacetyl)-AMC as substrate preincubated for 30 mins followed by substrate addition measured after 60 mins by trypsin-based fluorescence assay
# [2] = molecular target: Histone deacetylase 4 (Homo sapiens, UniProt P56524); test: Inhibition of human HDAC4 using Boc-Lys(trifluoroacetyl)-AMC as substrate preincubated for 30 mins followed by substrate addition measured after 60 mins by trypsin-based fluorescence assay
# Sequence of Histone deacetylase 4 (P56524 whole entry): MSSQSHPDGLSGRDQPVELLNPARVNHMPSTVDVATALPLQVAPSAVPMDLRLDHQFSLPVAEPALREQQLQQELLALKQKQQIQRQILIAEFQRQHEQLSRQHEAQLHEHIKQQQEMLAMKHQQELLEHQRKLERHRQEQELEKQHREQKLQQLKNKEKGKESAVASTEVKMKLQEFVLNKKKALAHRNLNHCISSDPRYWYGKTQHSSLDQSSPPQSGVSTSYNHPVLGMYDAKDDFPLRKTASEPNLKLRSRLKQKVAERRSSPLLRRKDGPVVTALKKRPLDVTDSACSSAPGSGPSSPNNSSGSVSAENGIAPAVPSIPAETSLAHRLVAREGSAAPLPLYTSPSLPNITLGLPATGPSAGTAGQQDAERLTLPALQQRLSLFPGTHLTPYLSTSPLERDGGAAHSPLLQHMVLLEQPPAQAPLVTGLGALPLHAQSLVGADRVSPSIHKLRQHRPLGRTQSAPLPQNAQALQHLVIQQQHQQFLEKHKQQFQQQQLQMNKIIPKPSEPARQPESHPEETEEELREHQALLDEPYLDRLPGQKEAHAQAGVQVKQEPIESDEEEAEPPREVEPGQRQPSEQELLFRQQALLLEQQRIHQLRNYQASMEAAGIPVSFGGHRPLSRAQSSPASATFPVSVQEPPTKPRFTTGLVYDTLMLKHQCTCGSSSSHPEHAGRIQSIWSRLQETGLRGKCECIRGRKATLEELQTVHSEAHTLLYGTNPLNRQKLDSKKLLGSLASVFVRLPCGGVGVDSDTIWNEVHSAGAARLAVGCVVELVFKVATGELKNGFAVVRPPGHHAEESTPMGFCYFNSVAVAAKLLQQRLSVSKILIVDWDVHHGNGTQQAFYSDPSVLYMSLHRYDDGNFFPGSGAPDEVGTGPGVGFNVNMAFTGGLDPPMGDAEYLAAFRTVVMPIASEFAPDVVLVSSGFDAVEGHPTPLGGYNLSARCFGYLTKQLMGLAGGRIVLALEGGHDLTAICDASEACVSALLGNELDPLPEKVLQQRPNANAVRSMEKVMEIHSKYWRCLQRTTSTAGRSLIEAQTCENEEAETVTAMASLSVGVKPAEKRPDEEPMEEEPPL
# [3] = Inhibition of Pseudomonas aeruginosa PA0321 using Boc-Lys(trifluoroacetyl)-AMC as substrate preincubated for 30 mins followed by substrate addition measured after 60 mins by trypsin-based fluorescence assay
# [4] = Inhibition of Pseudomonas aeruginosa PA1409 using Boc-Lys(trifluoroacetyl)-AMC as substrate preincubated for 30 mins followed by substrate addition measured after 60 mins by trypsin-based fluorescence assay
# [5] = molecular target: Histone deacetylase 5 (Homo sapiens, UniProt Q9UQL6); test: Inhibition of human HDAC5 using Boc-Lys(trifluoroacetyl)-AMC as substrate preincubated for 30 mins followed by substrate addition measured after 60 mins by trypsin-based fluorescence assay
# Sequence of Histone deacetylase 5 (Q9UQL6 whole entry): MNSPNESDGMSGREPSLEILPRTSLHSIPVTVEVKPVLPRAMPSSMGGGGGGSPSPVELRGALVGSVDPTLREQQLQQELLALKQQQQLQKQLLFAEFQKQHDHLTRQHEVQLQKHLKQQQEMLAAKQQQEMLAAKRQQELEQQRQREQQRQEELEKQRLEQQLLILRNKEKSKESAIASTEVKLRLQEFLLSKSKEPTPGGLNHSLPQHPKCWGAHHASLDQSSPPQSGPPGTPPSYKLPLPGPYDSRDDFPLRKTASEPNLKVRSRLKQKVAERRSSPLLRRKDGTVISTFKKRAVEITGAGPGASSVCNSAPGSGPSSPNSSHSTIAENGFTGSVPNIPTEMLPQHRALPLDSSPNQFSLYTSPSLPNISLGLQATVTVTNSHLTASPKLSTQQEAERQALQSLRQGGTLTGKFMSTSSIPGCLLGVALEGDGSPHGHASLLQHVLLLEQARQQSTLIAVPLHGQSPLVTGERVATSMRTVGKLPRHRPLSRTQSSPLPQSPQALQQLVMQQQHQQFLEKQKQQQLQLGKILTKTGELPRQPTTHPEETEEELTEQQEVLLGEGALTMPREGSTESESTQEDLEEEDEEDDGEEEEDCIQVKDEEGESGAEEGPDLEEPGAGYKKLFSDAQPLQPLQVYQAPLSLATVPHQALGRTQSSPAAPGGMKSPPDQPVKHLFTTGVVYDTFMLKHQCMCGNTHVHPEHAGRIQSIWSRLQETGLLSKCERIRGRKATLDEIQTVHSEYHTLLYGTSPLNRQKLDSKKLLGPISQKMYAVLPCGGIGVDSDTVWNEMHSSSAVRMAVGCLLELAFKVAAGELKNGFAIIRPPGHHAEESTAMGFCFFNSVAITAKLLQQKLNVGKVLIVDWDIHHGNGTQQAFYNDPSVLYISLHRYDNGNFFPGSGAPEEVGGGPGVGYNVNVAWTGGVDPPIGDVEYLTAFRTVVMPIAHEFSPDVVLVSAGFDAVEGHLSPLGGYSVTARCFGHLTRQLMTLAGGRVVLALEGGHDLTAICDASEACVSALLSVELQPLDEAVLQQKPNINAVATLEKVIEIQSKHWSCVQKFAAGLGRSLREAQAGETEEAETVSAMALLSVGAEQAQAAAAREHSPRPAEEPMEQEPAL
SMILES,Ki [1] [µM],Ki [2] [µM],Ki [3] [µM],Ki [4] [µM],Ki [5] [µM]
O=C(NO)C(F)(F)C(F)(F)C(F)(F)C(F)(F)C(F)(F)C(F)(F)C(=O)Nc1cccc(-c2ccccc2)c1,0.1,> 50,1.5,4.4,> 50
CC(=O)Nc1ccc(NC(=O)C(F)(F)C(F)(F)C(F)(F)C(F)(F)C(F)(F)C(F)(F)C(=O)NO)cc1,0.32,> 50,3.6,7.6,> 50
O=C(NO)C(F)(F)C(F)(F)C(F)(F)C(F)(F)C(F)(F)C(F)(F)C(=O)Nc1ccccc1,0.022,> 50,0.7,2.6,13
O=C(NO)C(F)(F)C(F)(F)C(F)(F)C(F)(F)C(F)(F)C(F)(F)C(=O)Nc1ccc(-c2ccccc2)cc1,0.046,> 50,1.5,3.1,> 50
O=C(NO)C(F)(F)C(F)(F)C(F)(F)C(F)(F)C(F)(F)C(F)(F)C(=O)Nc1ccc2ccccc2c1,0.53,> 50,1.2,3.8,> 50
O=C(Nc1ccccc1)C(F)(F)C(F)(F)C(F)(F)C(F)(F)C(F)(F)C(F)(F)C(=O)Nc1ccccc1,10,> 50,> 50,> 50,> 50
O=C(NO)C(F)(F)C(F)(F)C(F)(F)C(F)(F)C(F)(F)C(F)(F)C(=O)Nc1ccc(-c2cnnn2-c2ccccc2)cc1,3.1,> 50,22,15,> 50
O=C(NO)C(F)(F)C(F)(F)C(F)(F)C(F)(F)C(F)(F)C(F)(F)C(=O)Nc1ccc2cc3ccccc3cc2c1,2,> 50,24,> 50,> 50
O=C(NO)C(F)(F)C(F)(F)C(F)(F)C(F)(F)C(F)(F)C(F)(F)C(=O)Nc1ccc(I)cc1,0.046,> 50,1.1,4.1,> 50
O=C(NO)C(F)(F)C(F)(F)C(F)(F)C(F)(F)C(F)(F)C(F)(F)C(=O)Nc1ccc2ccc3cccc4ccc1c2c34,0.23,> 50,4.1,16,> 50
CCc1cccc(NC(=O)C(F)(F)C(F)(F)C(F)(F)C(F)(F)C(F)(F)C(F)(F)C(=O)NO)c1,0.24,> 50,2.1,6.7,> 50
N#Cc1ccc(NC(=O)C(F)(F)C(F)(F)C(F)(F)C(F)(F)C(F)(F)C(F)(F)C(=O)NO)cc1,0.32,> 50,2.8,7.1,> 50
Cc1ccc(NC(=O)C(F)(F)C(F)(F)C(F)(F)C(F)(F)C(F)(F)C(F)(F)C(=O)NO)cc1,0.19,> 50,2.3,6.2,> 50
O=C(NO)C(F)(F)C(F)(F)C(F)(F)C(F)(F)C(F)(F)C(F)(F)C(=O)Nc1ccccc1-c1ccccc1,1.1,> 50,12,17,> 50
O=C(NO)C(F)(F)C(F)(F)C(F)(F)C(F)(F)C(F)(F)C(F)(F)C(=O)Nc1nc(-c2ccccc2)cs1,12,> 50,8.5,> 50,> 50
O=C(NO)C(F)(F)C(F)(F)C(F)(F)C(F)(F)C(F)(F)C(F)(F)C(=O)Nc1cccc(-c2cn(-c3ccccc3)nn2)c1,2.6,> 50,> 50,> 50,> 50
O=C(NO)C(F)(F)C(F)(F)C(F)(F)C(F)(F)C(F)(F)C(F)(F)C(=O)Nc1cccc2ccccc12,0.35,> 50,7,21,> 50
O=C(NO)C(F)(F)C(F)(F)C(F)(F)C(F)(F)C(F)(F)C(F)(F)C(=O)Nc1cc2ccccc2c2ccccc12,0.25,> 50,6,11,> 50
